For the test, the target named is Human immunodeficiency virus type 1 protease (Human immunodeficiency virus 1, UniProt Q72874). Nature of the test: Inhibitory activity against HIV protease.

As usually defined, the Ki is a dissociation constant, usually derived from enzyme kinetics or from competition with a known ligand. Lower therefore signals a stronger hold on the target. As for `Cc1ccc(O)cc1C(=O)N[C@@H](Cc1ccccc1)[C@H](O)[C@H](O)[C@H](Cc1ccccc1)NC(=O)c1cc(O)ccc1C`, the affinity, expressed as Ki, was 74 nM. Regarding `Cc1c(N)cccc1C(=O)N[C@@H](Cc1ccccc1)[C@H](O)[C@H](O)[C@H](Cc1ccccc1)NC(=O)c1cccc(N)c1C`, affinity was put at a Ki of 2.5 nM. This Ki is about 30-fold lower than that of the compound before.

Values taken from ChEMBL document CHEMBL1128784, “Symmetry-based HIV Protease inhibitors: rational design of 2-methylbenzamides as novel P2/P2 ligands” (Bioorg Med Chem Lett, 1995).
